One assay concerns the target RBP4-TTR interaction (Homo sapiens (Human), UniProt P02753). In words: TR-FRET (HTRF) assay for retinol-induced RBP4-TTR interaction. It counts as biochemical. To be noted: in the presence of 1 μM retinol; read-out: HTRF assay for antagonists of RBP4-TTR interaction: IC50. In a few lines: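 Bacterial MBP-RBP4 and Eu³⁺-cryptate-labeled untagged human TTR were incubated with titrated compound in the presence of 1 μM retinol, overnight at +4° C in the dark. Buffer: 10 mM Tris-HCl pH 7.5, 1 mM DTT, 0.05% NP-40, 0.05% Prionex, 6% glycerol, 400 mM KF. Signal is reported as Flu665/Flu620×10,000.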
(In TR-FRET formats the signal depends on donor and acceptor labels being close together.)

Another assay deals with RBP4 (Homo sapiens (Human), UniProt P02753). As to the kind of experiment: Scintillation proximity (SPA) RBP4 binding assay. To be noted: 10 nM 3H-Retinol, 50 nM biotinylated RBP4. An outline of the steps: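 Biotinylated urinary human RBP4 (50 nM) on streptavidin-PVT SPA beads with 10 nM ³H-retinol and test compound, in PBS pH 7.4, 1 mM EDTA, 0.1% BSA, 0.5% CHAPS. Nonspecific binding with 20 μM unlabeled retinol. Equilibrated 6 h at room temperature then overnight at 4° C under dim light.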
Background: Scintillation proximity formats need no separation of bound from free tracer.

Broadly, the IC50 is the concentration needed to halve the response being measured. Regarding `CC(=O)N1CCc2c(C(=O)N3CCC(c4cc(C(F)(F)F)cc(C(F)(F)F)c4)CC3)n[nH]c2C1` [Compound 153, 1-(3-(4-(3,5-bis(trifluoromethyl)phenyl)piperidine-1-carbonyl)-4,5-dihydro-1H-pyrazolo[3,4-c]pyridin-6(7H)-yl)ethanone], the IC50 on RBP4-TTR interaction was determined as 833 nM; on RBP4, 149 nM.

Consider `CS(=O)(=O)N1CCc2[nH]nc(C(=O)N3CCC(c4cc(C(F)(F)F)cc(C(F)(F)F)c4)CC3)c2C1` [Compound 154, (4-(3,5-bis(trifluoromethyl)phenyl)piperidin-1-yl)(5-(methylsulfonyl)-4,5,6,7-tetrahydro-1H-pyrazolo[4,3-c]pyridin-3-yl)methanone], for which the IC50 at RBP4-TTR interaction was found to be 385 nM; at RBP4 it was 150 nM.

Regarding `CC(=O)N1CCc2c(C(=O)N3CCC(c4c(F)cccc4C(F)(F)F)CC3)n[nH]c2C1` [Compound 156, 1-(3-(4-(2-fluoro-6-(trifluoromethyl)phenyl)piperidine-1-carbonyl)-4,5-dihydro-1H-pyrazolo[3,4-c]pyridin-6 (7H)-yl) ethanone], the IC50 on RBP4-TTR interaction came to 248 nM; at RBP4 it was 19.4 nM.

In the case of `N#Cc1ccc2nnc(C(=O)N3CCC(c4c(F)cccc4C(F)(F)F)CC3)n2c1` [Compound 157, 3-(4-(2-fluoro-6-(trifluoromethyl)phenyl)piperidine-1-carbonyl)-[1,2,4]triazolo[4,3-a]pyridine-6-carbonitrile], the concentration for half-maximal inhibition (IC50) on RBP4-TTR interaction came to 92 nM; at RBP4 it was 5.84 nM.

Regarding `CC(=O)N1CCc2c(C(=O)N3CCC(c4ccc(F)cc4C(F)(F)F)CC3)n[nH]c2C1` [Compound 158, 1-(3-(4-(4-fluoro-2-(trifluoromethyl)phenyl)piperidine-1-carbonyl)-4,5-dihydro-1H-pyrazolo[3,4-c]pyridin-6(7H)-yl)ethanone], the IC50 on RBP4-TTR interaction was determined as 36.8 nM; on RBP4, 8.63 nM.

`N#Cc1ccc2nnc(C(=O)N3CCC(c4cccc(Cl)c4C(F)(F)F)CC3)n2c1` [Compound 162, 3-(4-(3-Chloro-2-(trifluoromethyl)phenyl)piperidine-1-carbonyl)-[1,2,4]triazolo[4,3-a]pyridine-6-carbonitrile]: the results for the IC50 on RBP4-TTR interaction and at RBP4 were 10.7 nM and 4.82 nM, respectively.

For the molecule `CCN1CCc2[nH]nc(C(=O)N3CCC(c4cccc(F)c4Cl)CC3)c2C1` [Compound 163, (4-(2-Chloro-3-fluorophenyl)piperidin-1-yl)(5-ethyl-4,5,6,7-tetrahydro-1H-pyrazolo[4,3-c]pyridin-3-yl)methanone], the values for the 50% inhibitory concentration (IC50) on RBP4-TTR interaction and at RBP4 were 55.3 nM and 15.3 nM, respectively.

As for `O=C(c1n[nH]c2c1CN(CC1CC1)CC2)N1CCC(c2cccc(F)c2Cl)CC1` [Compound 164, (4-(2-Chloro-3-fluorophenyl)piperidin-1-yl)(5-(cyclopropylmethyl)-4,5,6,7-tetrahydro-1H-pyrazolo[4,3-c]pyridin-3-yl)methanone], the IC50 at RBP4-TTR interaction is 75 nM; at RBP4, 13.6 nM.

As for `O=C(c1n[nH]c2c1CN(C1COC1)CC2)N1CCC(c2cccc(F)c2Cl)CC1` [Compound 165, (4-(2-Chloro-3-fluorophenyl)piperidin-1-yl)(5-(oxetan-3-yl)-4,5,6,7-tetrahydro-1H-pyrazolo[4,3-c]pyridin-3-yl)methanone], the half-maximal inhibitory concentration (IC50) on RBP4-TTR interaction stood at 64.8 nM; on RBP4 it was 15.6 nM.

Consider `O=C(c1n[nH]c2c1CN(CCC(F)(F)F)CC2)N1CCC(c2cccc(F)c2Cl)CC1` [Compound 167, (4-(2-Chloro-3-fluorophenyl)piperidin-1-yl)(5-(3,3,3-trifluoropropyl)-4,5,6,7-tetrahydro-1H-pyrazolo[4,3-c]pyridin-3-yl)methanone], for which the IC50 at RBP4-TTR interaction was found to be 48.8 nM; at RBP4, 11.7 nM.

As for `O=C(c1n[nH]c2c1CN(C(=O)N1CCNCC1)C2)N1CCC(c2ccc(F)c(F)c2C(F)(F)F)CC1` [Compound 169, (4-(3,4-Difluoro-2-(trifluoromethyl)phenyl)piperidin-1-yl)(5-(piperazine-1-carbonyl)-1,4,5,6-tetrahydropyrrolo[3,4-c]pyrazol-3-yl)methanone], the IC50 on RBP4-TTR interaction is 55.8 nM; on RBP4, 33 nM.

Source of the values: US9434727B2, “Substituted 4-phenylpiperidines, their preparation and use” (THE TRUSTEES OF COLUMBIA UNIVERSITY IN THE CITY OF NEW YORK, priority 2014, dated 2016).
